Results published in US12123031B2, “Regulation of CRISPR-associated rossman fold (CARF) domain containing proteins by oligoadenylates” (VILNIUS UNIVERSITY, priority 2017, dated 2024).

What was measured:
[1] = molecular target: T1, StCsm complex (Palm domain of StCas10 subunit) (Streptococcus thermophilus, UniProt A0A0A7HFE1); experiment: Nucleotide binding assay (EMSA); conditions: for affinity towards nucleotide: EMSA, binary and ternary StCsm
T1 construct: made in house; host or cells: Escherichia coli BL21 (DE3)
T1 sequence (A0A0A7HFE1 whole entry, the tested form may be a part): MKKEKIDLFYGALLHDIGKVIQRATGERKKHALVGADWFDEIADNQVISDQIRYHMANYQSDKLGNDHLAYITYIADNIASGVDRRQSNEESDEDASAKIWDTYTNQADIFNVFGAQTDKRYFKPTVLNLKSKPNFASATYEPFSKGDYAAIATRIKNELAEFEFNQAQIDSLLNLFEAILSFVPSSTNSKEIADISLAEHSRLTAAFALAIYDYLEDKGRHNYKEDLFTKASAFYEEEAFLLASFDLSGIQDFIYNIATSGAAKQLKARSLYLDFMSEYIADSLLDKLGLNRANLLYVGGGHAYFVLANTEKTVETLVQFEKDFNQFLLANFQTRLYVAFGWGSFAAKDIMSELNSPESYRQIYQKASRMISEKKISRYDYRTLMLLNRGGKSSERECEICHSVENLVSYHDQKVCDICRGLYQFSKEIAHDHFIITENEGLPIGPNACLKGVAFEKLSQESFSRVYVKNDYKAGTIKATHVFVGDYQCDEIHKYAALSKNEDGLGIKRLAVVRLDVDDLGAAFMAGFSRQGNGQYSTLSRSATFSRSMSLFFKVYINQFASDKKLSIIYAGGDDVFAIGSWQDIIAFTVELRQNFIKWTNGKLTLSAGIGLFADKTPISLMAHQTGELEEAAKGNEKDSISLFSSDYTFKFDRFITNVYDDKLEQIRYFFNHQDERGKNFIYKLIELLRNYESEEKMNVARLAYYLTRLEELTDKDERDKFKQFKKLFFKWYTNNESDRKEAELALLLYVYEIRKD
T1 sequence (A0A0A7HF79 whole entry, further chain, the tested form may be a part): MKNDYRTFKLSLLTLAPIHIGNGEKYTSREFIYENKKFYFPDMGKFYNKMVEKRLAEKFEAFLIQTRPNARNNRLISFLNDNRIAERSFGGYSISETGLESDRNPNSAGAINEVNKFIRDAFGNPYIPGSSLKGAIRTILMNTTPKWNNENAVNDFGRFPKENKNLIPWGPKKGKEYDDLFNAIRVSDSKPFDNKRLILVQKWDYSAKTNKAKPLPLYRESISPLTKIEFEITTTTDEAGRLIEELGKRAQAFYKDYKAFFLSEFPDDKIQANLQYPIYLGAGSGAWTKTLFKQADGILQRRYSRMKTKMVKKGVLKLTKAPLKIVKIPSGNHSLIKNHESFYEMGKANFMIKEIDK
T1 sequence (A0A0A7HIF0 whole entry, further chain, the tested form may be a part): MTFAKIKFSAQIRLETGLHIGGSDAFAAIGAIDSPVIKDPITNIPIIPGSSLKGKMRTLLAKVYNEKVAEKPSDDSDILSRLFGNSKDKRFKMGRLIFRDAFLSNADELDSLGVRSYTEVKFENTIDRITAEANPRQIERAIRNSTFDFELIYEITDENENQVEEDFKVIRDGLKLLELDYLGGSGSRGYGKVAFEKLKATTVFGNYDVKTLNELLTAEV
T1 sequence (A0A0A7HGA1 whole entry, further chain, the tested form may be a part): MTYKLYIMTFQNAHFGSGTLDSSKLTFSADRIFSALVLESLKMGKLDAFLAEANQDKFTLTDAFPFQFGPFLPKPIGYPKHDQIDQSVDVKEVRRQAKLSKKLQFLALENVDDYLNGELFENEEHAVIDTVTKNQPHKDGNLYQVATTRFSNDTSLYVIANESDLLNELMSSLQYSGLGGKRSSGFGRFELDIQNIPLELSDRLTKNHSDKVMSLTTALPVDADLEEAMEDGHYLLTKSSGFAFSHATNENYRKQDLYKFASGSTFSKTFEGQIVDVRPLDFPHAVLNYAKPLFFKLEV
T1 sequence (A0A0A7HIX1 whole entry, further chain, the tested form may be a part): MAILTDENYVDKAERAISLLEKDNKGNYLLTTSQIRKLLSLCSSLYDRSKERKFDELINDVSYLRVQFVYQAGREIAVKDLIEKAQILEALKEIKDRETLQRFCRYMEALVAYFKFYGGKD
Procedure: Nucleotide binding assay. Nucleotide binding assays were performed by incubating different amounts of StCsm complexes with 10 nM of ^32P-radiolabeled-nucleoside triphosphates in the Binding buffer (40 mM Tris, 20 mM acetic acid (pH 8.4 at 25° C.), 1 mM EDTA, 0.1 mg/ml BSA, 10% (v/v) glycerol). All reactions were incubated for 15 min at room temperature prior to electrophoresis on native 8% (w/v) polyacrylamide gel (PAAG). Electrophoresis was carried out at room temperature for 2 h at 6 V/cm using 40 mM Tris, 20 mM acetic acid (pH 8.4 at 25° C.), 0.1 mM EDTA as the running buffer. Gels were dried and visualized by a FLA-5100 phosphorimager (Fujifilm).
NTP binding by binary and ternary StCsm complexes was monitored using EMSA. The binding reactions contained 2 nM of α^32P-radiolabeled and 8 nM of the corresponding non-labeled nucleotide (ATP, 2′dATP, 3′dATP, GTP, UTP or CTP (Perkin Elmer)) in addition to the StCsm complex (without RNA, with the target RNA S3/2 or non-specific RNA NS, as denoted above the gels), at concentrations indicated by each lane. Samples were analyzed in PAAG under non-denaturing conditions.

ternary StCsm complex = molecular target: T2, ternary StCsm complex (Streptococcus thermophilus, UniProt A0A0A7HFE1); experiment: StCsm mediated conversion of nucleoside triphosphates to reaction products (TLC); type: biochemical; conditions: 200 nM ternary StCsm, 50 μM nucleotide, 10 mM CoCl2, 37° C.
T2 construct: made in house; host or cells: Escherichia coli BL21 (DE3)
T2 sequence (A0A0A7HFE1 whole entry): as the sequence (A0A0A7HFE1 whole entry, the tested form may be a part) above
T2 sequence (A0A0A7HGA1 whole entry, further chain): as the sequence (A0A0A7HGA1 whole entry, further chain, the tested form may be a part) above
T2 sequence (A0A0A7HIF0 whole entry, further chain): as the sequence (A0A0A7HIF0 whole entry, further chain, the tested form may be a part) above
T2 sequence (A0A0A7HIX1 whole entry, further chain): as the sequence (A0A0A7HIX1 whole entry, further chain, the tested form may be a part) above
T2 sequence (A0A0A7HF79 whole entry, further chain): as the sequence (A0A0A7HF79 whole entry, further chain, the tested form may be a part) above
Procedure: StCsm mediated synthesis of cyclic oligoadenylates from ATP. The synthesis reactions of cyclic oligoadenylates by StCsm were initiated by adding 10 mM CoCl2 into a mix of 200 nM StCsm, 200 nM target RNA, 50 μM ATP and 10 nM α^32P-ATP in the Reaction buffer (33 mM Tris-acetate (pH 7.6 at 37° C.), 66 mM K-acetate, 0.1 mg/ml BSA) and carried out at 37° C. for 1 h or 1.5 h, unless stated otherwise. StCsm reactions on different nucleoside triphosphates contained 200 nM of ternary StCsm, 50 μM of the non-labeled nucleotide and 10 nM of the corresponding α^32P-nucleotide. The reactions were stopped by adding 15 mM EDTA. Reaction products were separated by TLC on PEI Cellulose F plates (Merck) in 0.5 M phosphate buffer (pH 3.5 at 23° C.) or a denaturating 24% (19:1 acrylamide:bis-acrylamide) PAAG and visualized using autoradiography.
(FIG. 1A) ATP reaction of an individual StCas10 subunit. The reactions contained 200 nM StCas10, 50 μM ATP, 10 nM α^32P-ATP (Perkin Elmer), 200 nM target RNA S3/2 and/or 5 nM M13 mp18 ssDNA. The assays were performed at 37° C. in the Reaction buffer supplemented with 10 mM CoCl2. Samples were analyzed by thin-layer chromatography (TLC), followed by phosphorimaging. Reaction products of the binary StCsm complex (Cas/Csm proteins plus crRNA) and ATP in the absence or in the presence of single-stranded (ss) DNA are presented in (FIG. 1B) and (FIG. 1C), respectively. Reaction products of the ternary StCsm complex (Cas/Csm proteins plus crRNA and target RNA) and ATP in the absence or in the presence of ssDNA are presented in (FIG. 1D) and (FIG. 1E), respectively. The reactions contained 200 nM of the binary or ternary StCsm, 50 μM ATP, 10 nM α^32P-ATP and 10 nM M13 mp18 ssDNA. The assays were performed at 37° C. in the Reaction buffer supplemented with 10 mM CoCl2 and the samples were analyzed by TLC, followed by phosphorimaging. Heating α^32P-ATP at 95° C. for 60 min was used to generate radiolabeled ADP and AMP, which were used as a TLC control (marked as lane M). Rate constants of ATP decay, which are presented bellow each TLC plate, were calculated by fitting single exponentials to the substrate depletion data. Cartoons above the graphs depict reaction components: protospacer is grey in between black lines, the complementary strand (matching spacer in crRNA) is lighter grey, DNA is a black circle.
(FIG. 3A) Cartoons above gels depict ternary StCsm complexes that differ in the bound target RNA molecules in the same manner as in FIG. 1. The agarose gels show degradation patterns of 1 nM of circular M13 mp18 ssDNA in the presence of 5 nM ternary StCsm complexes containing different RNAs FIG. 3A is reproduced from (1). All RNA substrates used here are bound and cleaved by the StCsm ribonuclease (2). (FIG. 3B) Reaction products of various ternary StCsm complexes with ATP. The reactions contained 200 nM of the ternary StCsm with different nucleic acids (NA), 50 μM ATP and 10 nM α^32P-ATP. The assays were performed at 37° C. in the Reaction buffer supplemented with 10 mM CoCl2 and the samples were analyzed by TLC, followed by phosphorimaging. Heating α^32P-ATP at 95° C. for 60 min was used to generate radiolabeled ADP and AMP, which were used as a TLC control (marked as lane M).
(A) Ternary StCsm complex was incubated with ATP, 2′dATP, 3′dATP, GTP, CTP or UTP radiolabeled nucleotides. The reactions contained 200 nM of the ternary StCsm, 50 μM of the non-labeled nucleotide and 10 nM of the corresponding α^32P-nucleotide. The assays were performed at 37° C. for 60 min in the Reaction buffer supplemented with 10 mM CoCl2 and samples were analyzed by TLC, followed by phosphorimaging. (B) The products of StCsm-mediated 2′dATP reaction were further analyzed by ion pair reverse-phase (RP) HPLC-MS. On the left panel, HPLC analysis is presented. On the right panels, the isotopic patterns of ions (without one, (M-H)-, or two (M-2H)2-protons) of the identified compounds are presented.

StCsm6 = molecular target: T3, StCsm6 (Streptococcus thermophilus, UniProt A0A0A7HIX6); experiment: Csm6 nuclease assay, StCsm6; type: biochemical; conditions: 1 mM ATP
T3 construct: HSH (StrepII tag plus two 6xHis tags) (N); made in house; host or cells: E. coli DH10B (ara)
T3 sequence (A0A0A7HIX6 1-428): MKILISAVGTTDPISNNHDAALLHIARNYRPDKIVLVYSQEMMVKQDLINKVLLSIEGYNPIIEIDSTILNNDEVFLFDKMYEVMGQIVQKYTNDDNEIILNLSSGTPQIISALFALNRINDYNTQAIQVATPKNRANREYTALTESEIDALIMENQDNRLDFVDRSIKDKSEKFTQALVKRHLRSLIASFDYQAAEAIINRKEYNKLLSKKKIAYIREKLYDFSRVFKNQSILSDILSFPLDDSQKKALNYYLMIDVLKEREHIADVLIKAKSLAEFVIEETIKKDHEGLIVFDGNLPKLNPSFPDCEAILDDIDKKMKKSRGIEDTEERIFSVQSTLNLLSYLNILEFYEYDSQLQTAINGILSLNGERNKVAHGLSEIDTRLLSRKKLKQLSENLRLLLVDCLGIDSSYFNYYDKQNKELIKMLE
Procedure: Csm6 nuclease assay. […] 5′P-oligoadenylates were obtained by incubating 3.(3) μM of non-phosphorylated linear oligoadenylate with 0.5 U T4 polynucleotide kinase and 1 mM ATP in the Reaction buffer A at 37° C. for 40 min.
Reactions were started by adding 0-10 μM Csm6 and carried out at 37° C. The reaction products were separated on a denaturing 15% (29:1 acrylamide:bis-acrylamide) PAAG and visualized by autoradiography. StCsm6 nuclease assays with ATP additionally contained 1 mM of ATP in the reaction mixture.
Samples were analyzed in denaturing PAAG, followed by phosphorimaging.

Structure (SMILES)	reaction products formed from the nucleotide alone (ternary StCsm complex)	affinity towards nucleotide [1]	also measured
Nc1ncnc2c1ncn2[C@H]1C[C@H](O)[C@@H](COP(=O)(O)OP(=O)(O)OP(=O)(O)O)O1 [2′dATP]	reacts with significantly lower efficiency		binding affinity, ternary StCsm complex ([1]; target RNA bound (ternary StCsm complex)): visibly decreases
Nc1ncnc2c1ncn2[C@@H]1O[C@H](COP(=O)(O)OP(=O)(O)OP(=O)(O)O)C[C@H]1O [3′dATP]	does not produce any reaction products		
Nc1ncnc2c1ncn2[C@@H]1O[C@H](COP(=O)(O)O)[C@@H](O)[C@H]1O [AMP, adenosine monophosphate]	yields no products		
Nc1ncnc2c1ncn2[C@@H]1O[C@H](COP(=O)(O)OP(=O)(O)OP(=O)(O)O)[C@@H](O)[C@H]1O [ATP, adenosine triphosphate]			Kd ([1]; in the presence or absence of target RNA): 10 to 20 nM; inhibition of StCsm6 RNase (StCsm6): inhibited
Nc1ccn([C@@H]2O[C@H](COP(=O)(O)OP(=O)(O)OP(=O)(O)O)[C@@H](O)[C@H]2O)c(=O)n1 [CTP]	no reaction products are formed	no significant affinity	
Nc1nc2c(ncn2[C@@H]2O[C@H](COP(=O)(O)OP(=O)(O)OP(=O)(O)O)[C@@H](O)[C@H]2O)c(=O)[nH]1 [GTP]	no reaction products are formed	no significant affinity	
O=c1ccn([C@@H]2O[C@H](COP(=O)(O)OP(=O)(O)OP(=O)(O)O)[C@@H](O)[C@H]2O)c(=O)[nH]1 [UTP]	no reaction products are formed	no significant affinity	
